Our source for the GI50 and TGI values is PubChem BioAssay (NCI).

By GI50 is commonly meant the concentration giving 50% growth inhibition. In general, TGI refers to the concentration at which net growth stops. Lower therefore signals greater sensitivity of the cells.

Where “and” joins values, the source holds several entries; their conditions need not be identical. Equal values may be shown once.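 How tested: cells in 96-well plates exposed to compound for 48 hours at five concentrations. GI50 = concentration required for 50% inhibition of growth. TGI: concentration producing complete growth inhibition.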 Where a SMILES comes first, the peptide text is derived from it. [ ]: non-standard residue; d: D form. The star is where a group is joined. ξ: configuration not given here. X6 = FC(F)(F)c1cc(NC(=S)*)cc(C(F)(F)F)c1; ξF = NC(Cc1ccccc1)C(=O)O

In the experiment the test system is MDA-MB-468 breast. Put plainly: DTP human tumour cell line panel, 48 h.

As for `CCC(CO)Nc1nc2ccc(Cl)cc2c2ccccc12` (stereo not given), the GI50 is 5280 nM and the concentration for total growth inhibition (TGI) was determined as 19500 nM.

Take `C#Cc1ccc(-n2c(/C=C/c3ccc(C(F)(F)F)cc3)nc3ncccc3c2=O)cc1`: the GI50 is 1510 nM and the TGI is 3630 nM.

On to `COc1ccc2[nH]cc(-c3csc4nc(-c5ccccc5)cn34)c2c1`, for which the concentration for 50% growth inhibition (GI50) was 362 nM and the TGI came out at 2070 nM.

In the case of `NC(=O)c1cccc2cn(-c3ccc([C@@H]4CCCNC4)cc3)nc12`, the GI50 is 6090 nM and the TGI came out at 18900 nM.

Consider `CC(C)CCC[C@@H](C)[C@H]1CC[C@H]2[C@@H]3CC=C4C[C@@H](C(C(=O)O)C(=O)O)CC[C@]4(C)[C@H]3CC[C@]12C`, for which the GI50 is 337 nM and the TGI turned out to be 892 nM.

For `CCCCCN(CCCCC)CCCNc1c2c(nc3ccc(Cl)cc13)CCCC2`, the GI50 was 2440 nM and the total growth inhibition concentration (TGI) amounted to 6310 nM.

On to `COc1ccc2c(C3=C(c4cn(C)c5ccccc45)C(=O)NC3=O)cn(C)c2c1`, for which the GI50 is 112 nM and the TGI worked out at 10200 nM.

`O=C(/C=C/C12c3ccccc3C(c3ccccc31)C1C(=O)NC(=O)C12)c1ccncc1` (stereo not given): the GI50 is 1820 nM and the TGI was found to be 4020 nM.

As for `NC(=O)c1sc(-n2cnc3ccccc32)cc1OCc1ccccc1Br`, the 50% growth inhibitory concentration (GI50) is 340 nM and the TGI is 2180 nM.

On to `COC(=O)[C@@H](NC(=O)CNC(=O)[C@H]1CCCN1C(=O)C(Cc1ccccc1)NC(=S)Nc1cc(C(F)(F)F)cc(C(F)(F)F)c1)C(C)C` (stereo not given in full) (X6-[ξF][dP]GV-OMe), for which the GI50 was 1500 nM and the total growth inhibition concentration (TGI) stood at 3230 nM.

Consider `Cn1cc(C2=C(c3cn(C)c4ncccc34)C(=O)NC2=O)c2ccccc21`, for which the GI50 is 5470 nM and the concentration for total growth inhibition (TGI) is above 25000 nM.

For the molecule `O=C(Nc1ccc(Cl)c(Cl)c1)Nc1ccc(Cl)c(Cl)c1`, the GI50 was 1840 nM and 2210 nM; the total growth inhibition concentration (TGI) was 6690 nM and 6100 nM.

`Cc1nc2ccccc2c(N)c1-c1cc(C)c2c(C)nc3ccccc3c2n1`: the GI50 is 1640 nM and the TGI amounted to 3730 nM.

As to `COC1CCC(N2C(=O)CNc3ncc(-c4ccc(C(C)(C)O)nc4)nc32)CC1` (stereo not given), the GI50 was 430 nM and 407 nM; the TGI is 3510 nM and 5380 nM.

In the case of `CC/C=C\CCC/C=C1/C(=O)C=C[C@@H]1C/C=C\CCCC(=O)OC`, the GI50 was 3200 nM and the total growth inhibition concentration (TGI) stood at 10100 nM.

`O=C1CC(c2ccc3c(c2)OCO3)Nc2ccccc21` (stereo not given): the GI50 is 4220 nM and the TGI was 23900 nM.

For `Clc1ccc2c(NCCCCNc3nc(N4CCCCC4)nc4ccccc34)ccnc2c1`, the GI50 is 1640 nM and the TGI amounted to 3630 nM.

For `CCCCCN(CCCCC)CC(O)c1cc(C)c2ccc3cc(C(C)C)ccc3c2c1` (stereo not given), the GI50 is 1740 nM and the concentration for total growth inhibition (TGI) came out at 3290 nM.

`Cc1ccc(C(=O)/C(=C/c2ccc([N+](=O)[O-])cc2)SCc2ccc(Cl)cc2)cc1`: the GI50 was 2760 nM and the concentration for total growth inhibition (TGI) was 7460 nM.

On to `OCc1ccc(N2CCC2c2ccc(F)cc2)cc1Cl` (stereo not given), for which the GI50 was 30.4 nM and the TGI came to 251 nM.

Consider `CO[C@H](C(=O)[C@@H](O)[C@@H](C)O)[C@@H]1Cc2cc3cc(O[C@H]4C[C@@H](O[C@H]5C[C@@H](O)[C@H](O)C(C)O5)[C@H](O)C(C)O4)c(C)c(O)c3c(O)c2C(=O)[C@H]1O[C@H]1C[C@@H](O[C@H]2C[C@@H](O[C@H]3C[C@](C)(O)C(=O)C(C)O3)[C@@H](O)C(C)O2)[C@H](O)C(C)O1` (stereo not given in full), for which the GI50 is 68.4 nM and the TGI was 515 nM.

As for `Nc1nc(-c2cccc([N+](=O)[O-])c2)c(N=Nc2cccc([N+](=O)[O-])c2)s1`, the GI50 is 30500 nM and the TGI is above 100000 nM.

Turning to `COC1=CC(c2ccc[nH]2)=N/C1=C\c1[nH]c(C)c(C(=O)OC(C)C)c1C`, the GI50 was 111 nM and the TGI stood at 1390 nM.

`COc1cc(-c2nn(-c3ccc(NC(=O)c4ccc(Cl)c(C(F)(F)F)c4)cc3)cc2-c2ccncc2)ccc1Cl`: the GI50 is 2950 nM and the total growth inhibition concentration (TGI) turned out to be 16000 nM.

Regarding `O=C1/C(=C/c2cccc([N+](=O)[O-])c2)COc2ccc(O)cc21`, the GI50 was 2260 nM and the TGI came to 5000 nM.
